Measured values as given in PubChem BioAssay (NCI).
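Values below derive from 48-hour exposures of cells grown in 96-well plates, with endpoints linearly interpolated between the two concentrations bracketing the appropriate inhibition level. TGI marks complete inhibition of growth.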

Columns and labels:
Assay in all cases: NCI-60 cell line screen, 48 h
ACHN renal = tested on: ACHN renal
HCT-116 colon = tested on: HCT-116 colon
LOX IMVI melanoma = tested on: LOX IMVI melanoma
OVCAR-5 ovarian = tested on: OVCAR-5 ovarian
UACC-257 melanoma = tested on: UACC-257 melanoma
HT29 colon = tested on: HT29 colon
SK-MEL-2 melanoma = tested on: SK-MEL-2 melanoma
UACC-62 melanoma = tested on: UACC-62 melanoma
HS 578T breast = tested on: HS 578T breast
IGROV1 ovarian = tested on: IGROV1 ovarian
MCF7 breast = tested on: MCF7 breast
K-562 leukemia = tested on: K-562 leukemia
SK-MEL-28 melanoma = tested on: SK-MEL-28 melanoma
BT-549 breast = tested on: BT-549 breast
MDA-N = tested on: MDA-N
EKVX NSCLC = tested on: EKVX NSCLC
MDA-MB-231 breast = tested on: MDA-MB-231 breast
MALME-3M melanoma = tested on: MALME-3M melanoma
CAKI-1 renal = tested on: CAKI-1 renal
M14 melanoma = tested on: M14 melanoma
SF-295 CNS = tested on: SF-295 CNS
RXF 393 renal = tested on: RXF 393 renal
A498 renal = tested on: A498 renal
PC-3 prostate = tested on: PC-3 prostate
SN12C renal = tested on: SN12C renal
SF-539 CNS = tested on: SF-539 CNS
SK-OV-3 ovarian = tested on: SK-OV-3 ovarian
KM12 colon = tested on: KM12 colon
SF-268 CNS = tested on: SF-268 CNS
COLO 205 colon = tested on: COLO 205 colon
OVCAR-3 ovarian = tested on: OVCAR-3 ovarian
TK-10 renal = tested on: TK-10 renal
SNB-19 CNS = tested on: SNB-19 CNS
A549 NSCLC = tested on: A549 NSCLC
SW-620 colon = tested on: SW-620 colon
786-0 renal = tested on: 786-0 renal
HOP-92 NSCLC = tested on: HOP-92 NSCLC
OVCAR-4 ovarian = tested on: OVCAR-4 ovarian
OVCAR-8 ovarian = tested on: OVCAR-8 ovarian
SK-MEL-5 melanoma = tested on: SK-MEL-5 melanoma
MDA-MB-435 = tested on: MDA-MB-435
T-47D breast = tested on: T-47D breast
NCI/ADR-RES ovarian = tested on: NCI/ADR-RES ovarian
RPMI-8226 leukemia = tested on: RPMI-8226 leukemia
DU-145 prostate = tested on: DU-145 prostate
NCI-H226 lung = tested on: NCI-H226 lung
HOP-62 NSCLC = tested on: HOP-62 NSCLC
NCI-H522 lung = tested on: NCI-H522 lung
HCT-15 colon = tested on: HCT-15 colon
U251 CNS = tested on: U251 CNS
NCI-H460 lung = tested on: NCI-H460 lung
UO-31 renal = tested on: UO-31 renal
SNB-75 CNS = tested on: SNB-75 CNS
NCI-H23 lung = tested on: NCI-H23 lung
MOLT-4 leukemia = tested on: MOLT-4 leukemia
CCRF-CEM leukemia = tested on: CCRF-CEM leukemia
HCC-2998 colon = tested on: HCC-2998 colon

O=C(CON1C(=O)c2ccccc2C1=O)c1ccccc1
TGI (ACHN renal): > 100 µM | TGI (HCT-116 colon): > 100 µM | TGI (LOX IMVI melanoma): > 100 µM | TGI (OVCAR-5 ovarian): > 100 µM | TGI (UACC-257 melanoma): > 100 µM | TGI (HT29 colon): > 100 µM | TGI (SK-MEL-2 melanoma): > 100 µM | TGI (UACC-62 melanoma): > 100 µM | TGI (HS 578T breast): > 100 µM | TGI (IGROV1 ovarian): > 100 µM | TGI (MCF7 breast): > 100 µM | TGI (K-562 leukemia): > 100 µM | TGI (SK-MEL-28 melanoma): > 100 µM | TGI (BT-549 breast): > 100 µM | TGI (MDA-N): > 100 µM | TGI (EKVX NSCLC): > 100 µM | TGI (MDA-MB-231 breast): > 100 µM | TGI (MALME-3M melanoma): 56.9 µM | TGI (CAKI-1 renal): 34.8 µM | TGI (M14 melanoma): > 100 µM | TGI (SF-295 CNS): > 100 µM | TGI (RXF 393 renal): > 100 µM | TGI (A498 renal): > 100 µM | TGI (PC-3 prostate): > 100 µM | TGI (SN12C renal): > 100 µM | TGI (SF-539 CNS): > 100 µM | TGI (SK-OV-3 ovarian): > 100 µM | TGI (KM12 colon): > 100 µM | TGI (SF-268 CNS): > 100 µM | TGI (COLO 205 colon): > 100 µM | TGI (OVCAR-3 ovarian): > 100 µM | TGI (TK-10 renal): 55 µM | TGI (SNB-19 CNS): > 100 µM | TGI (A549 NSCLC): > 100 µM | TGI (SW-620 colon): 69.1 µM | TGI (786-0 renal): > 100 µM | TGI (HOP-92 NSCLC): > 100 µM | TGI (OVCAR-4 ovarian): > 100 µM | TGI (OVCAR-8 ovarian): > 100 µM | TGI (SK-MEL-5 melanoma): > 100 µM | TGI (MDA-MB-435): > 100 µM | TGI (T-47D breast): 52.6 µM | TGI (NCI/ADR-RES ovarian): > 100 µM | TGI (RPMI-8226 leukemia): 40.4 µM | TGI (DU-145 prostate): > 100 µM | TGI (NCI-H226 lung): > 100 µM | TGI (HOP-62 NSCLC): > 100 µM | TGI (NCI-H522 lung): 36.6 µM | TGI (HCT-15 colon): > 100 µM | TGI (U251 CNS): > 100 µM | TGI (NCI-H460 lung): > 100 µM | TGI (UO-31 renal): 40.7 µM | TGI (SNB-75 CNS): > 100 µM | TGI (NCI-H23 lung): > 100 µM

CCOC(=O)c1cc(NC(=O)N(CCC#N)CCN(C(=O)N[C@@H](Cc2ccccc2)C(=O)N[C@@H](CC(C)C)C(=O)NC)c2ccccc2)ccc1OC
TGI (ACHN renal): > 100 µM | TGI (HCT-116 colon): > 100 µM | TGI (LOX IMVI melanoma): 41.5 µM | TGI (OVCAR-5 ovarian): > 100 µM | TGI (UACC-257 melanoma): 55 µM | TGI (SK-MEL-2 melanoma): > 100 µM | TGI (UACC-62 melanoma): 24.9 µM | TGI (HS 578T breast): > 100 µM | TGI (IGROV1 ovarian): > 100 µM | TGI (MCF7 breast): > 100 µM | TGI (SK-MEL-28 melanoma): > 100 µM | TGI (BT-549 breast): 82.9 µM | TGI (MDA-N): > 100 µM | TGI (EKVX NSCLC): > 100 µM | TGI (MDA-MB-231 breast): > 100 µM | TGI (MALME-3M melanoma): 73.5 µM | TGI (CAKI-1 renal): > 100 µM | TGI (M14 melanoma): > 100 µM | TGI (SF-295 CNS): > 100 µM | TGI (RXF 393 renal): 75.2 µM | TGI (A498 renal): > 100 µM | TGI (PC-3 prostate): > 100 µM | TGI (SN12C renal): > 100 µM | TGI (SF-539 CNS): 98.5 µM | TGI (SK-OV-3 ovarian): > 100 µM | TGI (KM12 colon): > 100 µM | TGI (SF-268 CNS): > 100 µM | TGI (MOLT-4 leukemia): 82.1 µM | TGI (COLO 205 colon): > 100 µM | TGI (OVCAR-3 ovarian): > 100 µM | TGI (TK-10 renal): > 100 µM | TGI (SNB-19 CNS): > 100 µM | TGI (A549 NSCLC): > 100 µM | TGI (786-0 renal): > 100 µM | TGI (HOP-92 NSCLC): 71 µM | TGI (CCRF-CEM leukemia): > 100 µM | TGI (OVCAR-4 ovarian): > 100 µM | TGI (OVCAR-8 ovarian): > 100 µM | TGI (HCC-2998 colon): > 100 µM | TGI (SK-MEL-5 melanoma): > 100 µM | TGI (MDA-MB-435): > 100 µM | TGI (T-47D breast): > 100 µM | TGI (NCI/ADR-RES ovarian): > 100 µM | TGI (RPMI-8226 leukemia): 57.9 µM | TGI (DU-145 prostate): > 100 µM | TGI (NCI-H226 lung): > 100 µM | TGI (HOP-62 NSCLC): > 100 µM | TGI (HCT-15 colon): > 100 µM | TGI (UO-31 renal): > 100 µM | TGI (SNB-75 CNS): > 100 µM | TGI (NCI-H23 lung): > 100 µM

CC(=O)SSC1(Cl)C(C)(C)C(Cl)(SSC(C)=O)C1(C)C (stereo not drawn)
TGI (ACHN renal): > 100 µM | TGI (HCT-116 colon): > 100 µM | TGI (LOX IMVI melanoma): > 100 µM | TGI (OVCAR-5 ovarian): > 100 µM | TGI (UACC-257 melanoma): > 100 µM | TGI (HT29 colon): > 100 µM | TGI (SK-MEL-2 melanoma): > 100 µM | TGI (UACC-62 melanoma): > 100 µM | TGI (HS 578T breast): > 100 µM | TGI (IGROV1 ovarian): > 100 µM | TGI (MCF7 breast): > 100 µM | TGI (SK-MEL-28 melanoma): > 100 µM | TGI (BT-549 breast): > 100 µM | TGI (MDA-N): > 100 µM | TGI (EKVX NSCLC): > 100 µM | TGI (MDA-MB-231 breast): > 100 µM | TGI (MALME-3M melanoma): > 100 µM | TGI (CAKI-1 renal): > 100 µM | TGI (M14 melanoma): > 100 µM | TGI (SF-295 CNS): > 100 µM | TGI (RXF 393 renal): 48.5 µM | TGI (A498 renal): > 100 µM | TGI (PC-3 prostate): > 100 µM | TGI (SN12C renal): > 100 µM | TGI (SF-539 CNS): 61.5 µM | TGI (SK-OV-3 ovarian): > 100 µM | TGI (KM12 colon): > 100 µM | TGI (SF-268 CNS): > 100 µM | TGI (COLO 205 colon): > 100 µM | TGI (OVCAR-3 ovarian): > 100 µM | TGI (TK-10 renal): > 100 µM | TGI (SNB-19 CNS): > 100 µM | TGI (A549 NSCLC): > 100 µM | TGI (SW-620 colon): > 100 µM | TGI (786-0 renal): > 100 µM | TGI (HOP-92 NSCLC): > 100 µM | TGI (CCRF-CEM leukemia): 60.2 µM | TGI (OVCAR-4 ovarian): > 100 µM | TGI (OVCAR-8 ovarian): > 100 µM | TGI (SK-MEL-5 melanoma): > 100 µM | TGI (MDA-MB-435): > 100 µM | TGI (T-47D breast): 51.7 µM | TGI (NCI/ADR-RES ovarian): > 100 µM | TGI (DU-145 prostate): > 100 µM | TGI (NCI-H226 lung): > 100 µM | TGI (HOP-62 NSCLC): > 100 µM | TGI (NCI-H522 lung): > 100 µM | TGI (HCT-15 colon): > 100 µM | TGI (U251 CNS): > 100 µM | TGI (NCI-H460 lung): 82.9 µM | TGI (UO-31 renal): > 100 µM | TGI (SNB-75 CNS): 82.5 µM | TGI (NCI-H23 lung): > 100 µM
